Measurements from patent US20090192154A1, “SULTAM DERIVATIVES” (Asahi Kasei Pharma Corporation, priority 2007, published 2009).
pIC50: −log10 of the molar value. Read-outs that look alike come from different tables or passages of the source.

Columns and labels:
Type in all cases: biochemical
[1] = molecular target: T1, human recombinant ADAMTS-5 (Homo sapiens, UniProt Q9UNA0); test: Inhibitory action for ADAMTS-5 (aggrecanase) activity, FRET assay with aggrecan interglobular domain peptide; details: human recombinant ADAMTS-5, 37° C. for 60 minutes
T1 construct: human recombinant ADAMTS-5 in which 6×His tag was added to the C-end side of Asn624; 6xHis (C); made in house
T1 sequence (Q9UNA0 262-624 limits assumed): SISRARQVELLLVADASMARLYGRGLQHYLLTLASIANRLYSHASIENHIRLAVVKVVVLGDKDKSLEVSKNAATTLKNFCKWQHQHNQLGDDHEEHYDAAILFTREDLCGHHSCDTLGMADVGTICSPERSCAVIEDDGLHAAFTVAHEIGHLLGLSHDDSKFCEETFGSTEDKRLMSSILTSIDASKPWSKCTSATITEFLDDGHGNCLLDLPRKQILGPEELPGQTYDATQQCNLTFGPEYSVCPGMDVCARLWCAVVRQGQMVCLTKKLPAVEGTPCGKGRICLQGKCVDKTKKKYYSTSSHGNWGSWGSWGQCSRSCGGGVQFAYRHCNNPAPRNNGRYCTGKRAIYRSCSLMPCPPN
Procedure: The enzyme protein used for measurement of ADAMTS-5 activity was human recombinant ADAMTS-5. An insect cell line was prepared that stably expressed human recombinant ADAMTS-5 in which 6×His tag was added to the C-end side of Asn624. The culture supernatant of this cell line was collected, and the obtained culture supernatant was purified using Ni-NTA agarose (Qiagen)
A matrix peptide used for measurement of aggrecanase activity was Interglobular domain of human recombinant aggrecan. With reference to the method of Hughes, et al. (J. Biol. Chem. 272: pp. 20269-20274, 1997), the peptide of Thr331 to Gly457 of human aggrecan was contained, and the FLAG epitope peptide was added at the N-terminal, and the C-terminal was modified with biotin. This peptide was expressed using Escherichia coli, and the obtained Escherichia coli was subjected to lysis, and then the peptide was purified with an affinity column (Promega)
Desired concentration of the test compound was reacted in 40 μl of a mixed reaction solution containing 50 mmol/L Tris-HCl (pH 7.5), 100 mmol/L NaCl, 10 mmol/L CaCl2, 0.05% Brij35 and human recombinant ADAMTS-5 and Interglobular domain peptide of human recombinant aggrecan at 37° C. for 60 minutes. To the mixed reaction solution was added 10 μl of 0.2 mol/L EDTA to stop the enzyme reaction. Five μl of this mixed reaction solution was harvested and transferred to a 384 well plate. 0.2% Bovine albumin, cryptate-labeled Streptavidin (CIS bio) and XL 665-labeled anti-FLAG (M2) antibody (CIS bio) suitably diluted with PBS (−)-containing 800 mmol/L potassium fluoride were added thereto so that the amount of each of the added matters was 2.5 μl. The resultant solution was incubated at room temperature. After 60 minutes, the fluorescence value was measured at 340 nm excitation wavelength and 615 nm and 665 nm measurement wavelengths with a fluorescence plate reader. When the matrix peptide was not cleaved, the fluorescence resonance energy transfer from cryptate to XL665 occurs and long life fluorescence of 665 nm wavelength is generated. […] Therefore, the aggrecanase activity was calculated using the change of the ratio of the fluorescence value at 665 nm and the fluorescence value at 615 nm. […] The inhibitory action for aggrecanase activity was represented by IC50 value (μmol/L). Exp. No. in Table 2 represents Example number.

[2] = molecular target: T2, activated human recombinant MMP-14 catalytic domain (Homo sapiens, UniProt P50281); test: Inhibitory action for MMP-14 activity, fluorescence peptide assay; details: 30° C. for 45 minutes
T2 construct: purchased Calbiochem
Procedure: (§1) Desired concentration of the test compound was reacted in 100 μl of a mixed reaction solution containing 50 mmol/L Tris-HCl (pH7.5), 150 mmol/LNaCl, 10 mmol/LCaCl2, 0.05% Brij35 and activated human recombinant MMP-14 catalytic domain (Calbiochem) and fluorescence peptide matrix (R&D) at 30° C. for 45 minutes. To the mixed reaction solution was added 10 μl of 0.2 mol/L EDTA to stop the enzyme reaction. Then, the fluorescence value was measured at 320 nm excitation wavelength and 405 nm measurement wavelength with a fluorescence plate reader.

[3] = molecular target: T3, activated human recombinant MMP-3 (Homo sapiens, UniProt P08254); test: Inhibitory action for MMP-3 activity, fluorescence peptide assay; details: activated human recombinant MMP-3, 30° C. for 45 minutes
T3 construct: purchased R&D
T3 sequence (P08254 100-477): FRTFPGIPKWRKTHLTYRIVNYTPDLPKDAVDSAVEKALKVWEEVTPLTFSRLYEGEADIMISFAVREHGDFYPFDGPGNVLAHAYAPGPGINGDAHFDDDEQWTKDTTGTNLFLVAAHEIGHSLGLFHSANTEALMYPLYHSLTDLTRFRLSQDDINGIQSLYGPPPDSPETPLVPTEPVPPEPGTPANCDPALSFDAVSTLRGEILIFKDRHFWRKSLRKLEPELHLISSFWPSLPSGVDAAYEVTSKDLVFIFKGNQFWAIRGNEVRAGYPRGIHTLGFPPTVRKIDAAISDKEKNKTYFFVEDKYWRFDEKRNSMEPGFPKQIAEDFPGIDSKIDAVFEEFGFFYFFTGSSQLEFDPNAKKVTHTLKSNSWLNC
Procedure: as §1, with “MMP-3 (R&D)” for “MMP-14 catalytic domain (Calbiochem)”, “matrix Mca-ArgProLysProValGlu-Nval-TrpArgLys (Dnp) —NH2” for “matrix”

[4] = molecular target: T4, activated human recombinant MMP-2 (Homo sapiens, UniProt P08253); test: Inhibitory action for MMP-2 activity, fluorescence peptide assay; details: activated human recombinant MMP-2, 30° C. for 45 minutes
T4 construct: purchased R&D
T4 sequence (P08253 110-660): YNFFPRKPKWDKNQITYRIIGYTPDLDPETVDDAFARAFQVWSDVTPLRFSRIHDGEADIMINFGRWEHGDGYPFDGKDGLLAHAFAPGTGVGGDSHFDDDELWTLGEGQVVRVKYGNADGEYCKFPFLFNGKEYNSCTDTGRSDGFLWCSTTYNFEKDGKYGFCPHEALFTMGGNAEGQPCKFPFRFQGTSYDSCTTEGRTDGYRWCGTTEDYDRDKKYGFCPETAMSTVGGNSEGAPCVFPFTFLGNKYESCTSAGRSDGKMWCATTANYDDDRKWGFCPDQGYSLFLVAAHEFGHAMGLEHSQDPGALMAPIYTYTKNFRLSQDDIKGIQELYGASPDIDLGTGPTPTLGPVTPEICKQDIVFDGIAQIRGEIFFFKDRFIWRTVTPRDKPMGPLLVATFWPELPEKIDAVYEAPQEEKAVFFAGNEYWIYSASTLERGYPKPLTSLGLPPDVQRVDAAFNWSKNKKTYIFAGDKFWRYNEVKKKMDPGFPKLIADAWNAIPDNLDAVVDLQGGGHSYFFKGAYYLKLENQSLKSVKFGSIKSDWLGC
Procedure: as §1, with “mmol/L NaCl,” for “mmol/LNaCl,”, “MMP-2 (R&D)” for “MMP-14 catalytic domain (Calbiochem)”, “matrix Mca-ProLeuGlyLeuDpaAlaArg-NH2” for “matrix”, “solution,” for “solution was added”, “EDTA was added” for “EDTA”

[5] = read-out: ADAMTS-5 inhibitory activity IC50 value

| pIC50 [1, 5] | SMILES | further results |
| --- | --- | --- |
|  | CC(C)C(C(=O)NO)N1Cc2sc(-c3ccccc3)cc2S1(=O)=O (centres unmarked) [Example 5] | pIC50 ([1]; read-out: ADAMTS-5 IC50): 5.68 |
| ≥ 5.70 | CCC(C(=O)O)N1Cc2sc(-c3ccc(/C=C/c4ccc(-c5ccccc5)cc4)cc3)cc2S1(=O)=O (centres unmarked) [Example 96] | pIC50 [2]: ≤ 4.52; pIC50 [3]: ≤ 4.52; pIC50 [4]: ≤ 4.52 |
| ≥ 5.70 | CCC(C(=O)O)N1Cc2sc(C#Cc3ccc(-c4ccccc4)cc3)cc2S1(=O)=O (centres unmarked) [Example 69] |  |
| ≥ 5.70 | CCC(C(=O)NO)N1Cc2sc(-c3ccccc3)cc2S1(=O)=O (centres unmarked) [Example 18] |  |
| ≥ 5.70 | CCC(C(=O)O)N1Cc2sc(-c3ccc(/C=C/c4ccccc4)cc3)cc2S1(=O)=O (centres unmarked) [Example 30] |  |
|  | CCC(C(=O)NO)N1Cc2sc(-c3ccccc3)cc2S1(=O)=O (centres unmarked) [Example 12] | pIC50 ([1]; read-out: ADAMTS-5 IC50): 5.70 |
|  | CC(C(=O)NO)N1Cc2sc(-c3ccccc3)cc2S1(=O)=O (centres unmarked) [Example 11] | pIC50 ([1]; read-out: ADAMTS-5 IC50): 5.40 |
|  | O=C(NO)C(C1CCCCC1)N1Cc2sc(-c3ccccc3)cc2S1(=O)=O (centres unmarked) [Example 13] | pIC50 ([1]; read-out: ADAMTS-5 IC50): 5.70 |
| ≥ 5.70 | CCC(C(=O)O)N1Cc2cc(-c3ccc(COc4ccc(Oc5ccccc5)cc4)cc3)sc2S1(=O)=O (centres unmarked) [Example 104] | pIC50 [2]: ≤ 4.52; pIC50 [3]: ≤ 4.52; pIC50 [4]: ≤ 4.52 |
| ≥ 5.70 | CCC(C(=O)NO)N1Cc2sc(/C=C/c3ccc(-c4ccccc4)cc3)cc2S1(=O)=O (centres unmarked) [Example 26] |  |
| ≥ 5.70 | CCC(C(=O)O)N1Cc2sc(-c3ccc(-c4ccc5c(cnn5C)c4)cc3)cc2S1(=O)=O (centres unmarked) [Example 102] | pIC50 [2]: ≤ 4.52; pIC50 [3]: ≤ 4.52 |
| ≥ 5.70 | CCC(C(=O)O)N1Cc2sc(C#Cc3ccc(N(C)C)cc3)cc2S1(=O)=O (centres unmarked) [Example 66] |  |
|  | O=C(NO)C(c1ccccc1)N1Cc2sc(-c3ccccc3)cc2S1(=O)=O (centres unmarked) [Example 14] | pIC50 ([1]; read-out: ADAMTS-5 IC50): 5.15 |
| ≥ 5.70 | CCC(C(=O)O)N1Cc2sc(-c3ccc(NC(=O)c4ccc(OCc5ccccc5)cc4)cc3)cc2S1(=O)=O (centres unmarked) [Example 147] | pIC50 [2]: ≤ 4.52; pIC50 [3]: ≤ 4.52; pIC50 [4]: ≤ 4.52 |
| ≥ 5.70 | CCC(C(=O)O)N1Cc2sc(-c3ccc(-c4ccc5c(ccn5C)c4)cc3)cc2S1(=O)=O (centres unmarked) [Example 53] |  |
| ≥ 5.70 | CCC(C(=O)O)N1Cc2sc(-c3ccc(/C=C/c4ccsc4)cc3)cc2S1(=O)=O (centres unmarked) [Example 97] |  |
|  | CCC(C(=O)O)N1Cc2sc(-c3ccc(OCc4ccccc4)c(F)c3)cc2S1(=O)=O (centres unmarked) [Example 113] | pIC50 [2]: ≤ 4.52; pIC50 [3]: ≤ 4.52; pIC50 [4]: ≤ 4.52 |
| ≥ 5.70 | CCC(C(=O)O)N1Cc2sc(/C=C/c3ccc(-c4ccccc4)cc3)cc2S1(=O)=O (single isomer, unassigned) [Example 41] |  |
| ≥ 5.70 | CCC(C(=O)O)N1Cc2sc(-c3ccc(-c4cncnc4)cc3)cc2S1(=O)=O (centres unmarked) [Example 56] |  |
| ≥ 5.70 | CCC(C(=O)O)N1Cc2sc(-c3ccc(/C=C/c4ccc(C)cc4)cc3)cc2S1(=O)=O (centres unmarked) [Example 95] |  |
| ≥ 5.70 | CCC(C(=O)O)N1Cc2sc(-c3ccc(/C=C/c4ccc(Cl)cc4)cc3)cc2S1(=O)=O (centres unmarked) [Example 94] |  |
| ≥ 5.70 | CCC(C(=O)O)N1Cc2sc(-c3ccc(-c4cc5ccccc5[nH]4)cc3)cc2S1(=O)=O (centres unmarked) [Example 54] |  |
| ≥ 5.70 | CCC(C(=O)O)N1Cc2sc(/C=C/c3ccc(-c4ccccc4)cc3)cc2S1(=O)=O (centres unmarked) [Example 22] |  |
| ≥ 5.70 | CCC(C(=O)O)N1Cc2sc(-c3ccc(/C=C/c4ccc(OC)cc4)cc3)cc2S1(=O)=O (centres unmarked) [Example 60] |  |
| ≥ 5.70 | CCC(C(=O)O)N1Cc2sc(-c3ccc(C#Cc4ccccc4)cc3)cc2S1(=O)=O (centres unmarked) [Example 61] |  |
